Data on 1 compound can be found in patent US20050004177A1, “Combination of an allosteric inhibitor of matrix metalloproteinase-13 and a ligand to an alpha-2-delta receptor” (WARNER-LAMBERT COMPANY LLC, priority 2003, published 2005).

As a reminder, the melting point is the temperature, or range, at which the solid turns liquid. `O=C(O)c1ccc(Cn2nnc(-c3cccc(C#CCc4ccccc4)c3)n2)cc1` [Preparation 2, 4-{5-[3-(3-Phenyl-prop-1-ynyl)-phenyl]-tetrazol-2-ylmethyl}-benzoic acid] registered a melting point of 195 to 198 °C.
